# From article PMC8049054, “Systematic Assessment of Fragment Identification for Multitarget Drug Design” (Chemmedchem, 2021)
# Marks after values point to notes of the source that are not given here.
# Columns and labels:
# Conditions in all cases: 500 μM fragment, mean of duplicates
# [1] = target: T1, leukotriene A4 hydrolase (LTA4H) (Homo sapiens, UniProt P09960); assay: Differential scanning fluorimetry (DSF) screen on LTA4H; type: binding
# T1 construct: made in house; host or cells: E. coli BL21 (DE3)
# T1 sequence (P09960 1-611): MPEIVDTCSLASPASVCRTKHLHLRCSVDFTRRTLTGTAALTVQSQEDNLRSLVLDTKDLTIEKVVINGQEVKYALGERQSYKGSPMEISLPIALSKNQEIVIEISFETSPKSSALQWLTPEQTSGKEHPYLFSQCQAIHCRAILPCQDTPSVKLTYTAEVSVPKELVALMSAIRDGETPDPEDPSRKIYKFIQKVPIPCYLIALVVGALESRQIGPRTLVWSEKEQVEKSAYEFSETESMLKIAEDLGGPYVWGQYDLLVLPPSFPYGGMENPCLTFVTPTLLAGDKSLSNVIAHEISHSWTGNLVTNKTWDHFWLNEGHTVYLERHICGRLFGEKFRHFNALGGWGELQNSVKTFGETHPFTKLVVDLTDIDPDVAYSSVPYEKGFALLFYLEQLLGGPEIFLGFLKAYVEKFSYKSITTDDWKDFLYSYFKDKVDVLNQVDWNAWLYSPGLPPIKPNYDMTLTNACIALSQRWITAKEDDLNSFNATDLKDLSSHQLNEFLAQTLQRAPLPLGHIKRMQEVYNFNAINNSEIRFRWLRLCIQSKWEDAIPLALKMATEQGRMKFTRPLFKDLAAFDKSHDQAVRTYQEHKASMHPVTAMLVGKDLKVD
# Source text: (§1) For the primary screen of this fragment library, we employed differential scanning fluorimetry (DSF, also known as thermal shift). DSF is generally applicable to a large panel of protein targets and provides a robust, low‐cost screening technology for fragment‐based approaches. ^[20] All five proteins of our interest are soluble and were recombinantly expressed in Escherichia coli. We performed an initial fragment screen on all five targets by DSF. The use of a uniform screening method for all targets ensured consistent data and provided the opportunity to identify false positive hits which interfered with the screening technology. The conditions of the DSF assay were optimized for the desired screening and validated with reference compounds (Table S1 in the Supporting Information). Compounds causing a positive thermal shift ΔT m≥1.0 °C were considered as active.
# (§2) DSF measurement of the PDFL (single concentration of 500 μM, duplicates, 96‐well format) on the five proteins retrieved 19 fragment hits on sEH, 28 on LTA4H, 12 on 5‐LOX, 16 on RXRα, and 14 on FXR, respectively. Melting point distributions of the screening library for all five targets are depicted in Figure 2. Amongst the hits, three compounds (Table S2) gave a positive signal on all five proteins likely qualifying them as pan assay interference compounds (PAINS). ^[21] Fragments binding to multiple targets (Scheme 1) were identified for seven out of ten target combinations (Figure 2, Table 1). Among them, fragments 4, 6, 7, and 9 match previously identified privileged scaffolds for fatty acid mimetics. ^[14] […] Active ligands containing N‐phenylbenzamide 6 and the N‐phenylbenzylamine 7 have been described for four of the protein targets. Furthermore, indole, which has been characterized as a privileged heterocycle for fatty acid mimetics, ^[14] is present in fragments 5 and 10. Dual 5‐LOX/RXR ligand 1 was present in 5‐LOX inhibitors, while dual FXR/LTA4H modulator 3 is found among known FXR ligands. Fragments 2 (sEH/5‐LOX) and 8 (LTA4H/RXR) are novel scaffolds not appearing in known ligands of any of the five targets.
# (§3) Figure S3: SDS page of the purified proteins (proteins RXRα and FXR after TEV cleavage) using a 14% polyacrylamide gel, which was stained with coomassi. Precision Plus Protein™ Unstained Protein Standard s (Bio-Rad Laboratories, Inc. ) was used […]
# (§4) All experiments were performed as duplicates using MicroAmp fast 96 -well plates. Each plate contained 80 different compound wells and 16 DMSO control wells. First 0.8 µl of a 25 mM Preswick Library Fragment dilution in DMSO or pure DMSO were placed in each of the well (final concentration 500 µM). Then 39.2 µl of the master mi x (containing protein, Triton x -100, SYPRO® Orange Protein Gel Stain and buffer that corresponds to the tested protein) were added.
# (§5) Table S4: Final concentrations in DSF experiments: […]
# (§6) The measurements were performed using a iCycler iQ™ Single -Color Real Time PCR device with a heat rate of 1 °C per min, an excitation wavelength of 490 nm and an emission wavelength of 570 nm. The first derivation calculated by MyiQ Op tical Software 1.0 was analyzed using Microsoft Office Excel 2013 by comparing the maxima. A shift of 1 °C (in case of 5 -LOX 0.9°C) or more compared to the DMSO control were assumed as potentially binding of the fragment.
# (§7) (1 picture or pasted object on this page, not shown here)
# [2] = test system: T2, RXRα; assay: Differential scanning fluorimetry (DSF) screen on RXRα; type: binding
# T2 construct: MBP (N, cleaved yes); poly-N-tag, His8-tag, TEV site (N, cleaved yes); made in house; host or cells: E. coli T7-express with pGro7 (GroEL/ES)
# Source text: as §1, §2, §3, §4, §5, §6, §7
# [3] = test system: T3, farnesoid X receptor (FXR); assay: Differential scanning fluorimetry (DSF) screen on FXR; type: binding, human
# T3 construct: made in house; host or cells: E. coli BL21 (DE3)
# Source text: For the primary screen of this fragment library, we employed differential scanning fluorimetry (DSF, also known as thermal shift). DSF is generally applicable to a large panel of protein targets and provides a robust, low‐cost screening technology for fragment‐based approaches. ^[20] […] We performed an initial fragment screen on all five targets by DSF.
# as §3, §4
# (§8) Table S4: Final concentrations in DSF experiments:
# Protein Final concentrations under screening conditions
# as §6, §7
# [4] = test system: T4, soluble epoxide hydrolase (sEH); assay: Differential scanning fluorimetry (DSF) screen on sEH; type: binding
# T4 construct: For the expression of sEH-H and sEH-Fl transformed E.coli BL21 (DE3) cells were grown in 5052; made in house; host or cells: E. coli BL21 (DE3)
# Source text: as §1, §2, §3, §4, §8
# Protein Final concentrations under screening conditions […]
# glycerol, 0.01% (W/V) Triton X-100, 2.05 % DMSO and 2.5x SYPRO® with a pH = 7 […]
# as §6, §7
SMILES,DSF/ΔT m LTA4H [1],DSF/ΔT m RXRα [2],DSF/ΔT m FXR [3],DSF/ΔT m sEH [4]
c1ccc(N2CCNCC2)nc1 [Compound 1],−0.5±0.0 °C,1.1±0.0 °C,−0.1±0.0 °C,0.0±0.0 °C
Cc1cc(=O)n(-c2ccc(C)c(C)c2)[nH]1 [Compound 2],−0.1±2.1 °C,−9.5±24.0 °C,0.3±0.0 °C,2.2±0.0 °C
CCCCOc1cc(C(=O)OC)ccc1N [Compound 3],2.5±0.0 °C,−2.9±0.0 °C,1.4±0.7 °C,0.0±0.0 °C
Oc1ccc(Cc2ccccc2)cc1 [Compound 4],1.5±0.0 °C,−2.4±0.7 °C,–,0.0±0.0 °C
Oc1ccc2cc[nH]c2c1 [Compound 5],1.7±0.0 °C,0.8±0.7 °C,1.2±0.0 °C,0.0±0.0 °C
Cc1ccccc1C(=O)Nc1ccccc1 [Compound 6],1.4±1.4 °C,−1.0±0.7 °C,−1.2±0.7 °C,2.0±0.0 °C
CCN(Cc1ccccc1)c1ccccc1 [Compound 7],0.5±0.0 °C,−0.4±0.7 °C,–,1.0±0.0 °C
Clc1ccc2c(c1)Nc1ccccc1CC2 [Compound 8],1.5±0.0 °C,–,–,–
Oc1ccc(-c2ccc(F)cc2F)cc1 [Compound 9],0.7±0.0 °C,2.3±0.0 °C,21.7±3.5 ^[a] °C,1.0±0.0 °C
Fc1ccc(-c2c[nH]c3ccccc23)cc1 [Compound 10],2.4±0.0 °C,1.9±0.0 °C,−11.6±2.1 °C,0.6±0.7 °C
